Values after ≈ are worked out from the molar mass of the structure shown.
Columns and labels:
[1] = 14C radiolabeled drug, beagle dogs, spot-on administration; cited from earlier work
[2] = 20° C. and pH of 7; cited from earlier work
Ctenocephalides felis = assay: Spot-on efficacy of Compound A, pyriproxyfen and nitenpyram against Ctenocephalides felis fleas in cats (Example 11); type: in vivo; conditions: Group 5: 2.08% nitenpyram alone in Transcutol, 5.0 mg/kg
Experimental: The efficacy of three spot-on compositions comprising a combination of Compound A, pyriproxyfen and nitenpyram against Ctenocephalides felis fleas in cats was studied and compared with an untreated control and with a spot-on composition comprising nitenpyram alone. Cats were allocated into five Treatment Groups with 5 cats per group: Group 1—cats were untreated (control); Group 2—cats were treated spot-on solution containing 0.83% (w/v) Compound A, 2.08% (w/v) nitenpyram, and 4.17% (w/v) pyriproxyfen in Transcutol® to deliver doses of 1.0 mg/kg Compound A, 2.5 mg/kg nitenpyram and 5.0 mg/kg pyriproxyfen; Group 3—cats were treated a spot-on solution containing 0.83% (w/v) Compound A, 4.17% (w/v) nitenpyram, and 4.17% (w/v) pyriproxyfen in Transcutol® to deliver doses of 1.0 mg/kg Compound A, 5.0 mg/kg nitenpyram and 5.0 mg/kg pyriproxyfen; Group 4—cats were treated with a spot-on composition containing 0.83% (w/v) Compound A, 8.33% (w/v) nitenpyram and 4.17% (w/v) pyriproxyfen in Transcutol® to deliver doses of 1.0 mg/kg Compound A, 10.0 mg/kg nitenpyram and 5.0 mg/kg pyriproxyfen; Group 5—cats were treated with a spot-on composition containing 2.08% (w/v) nitenpyram alone in Transcutol® to deliver a dose of 5.0 mg/kg body weight.
Treatment was administered once on Day 0. The cats were each infested with approximately 100 C. felis fleas at day −1, on Day 0 approximately 12 hours post treatment and then on Days 1 (approx. 24 hours post treatment), 2, 7, 14, 21, 28 and 35. After each infestation, fleas were removed and counted approximately 12 hours (±3) on Day 0, and then on Days 1, 2, 8, 15, 22, 29 and 36 (24±3 hours after infestation).

SMILES: N#Cc1nn(-c2c(Cl)cc(C(F)(F)F)cc2Cl)c(N)c1[S+]([O-])C(F)(F)F (centres unmarked) [fipronil]
- persistently detected in the whole skin after treatment [1]: up to 56 days

SMILES: CCN(Cc1ccc(Cl)nc1)/C(=C/[N+](=O)[O-])NC [nitenpyram]
- solubility in water [2]: 840 mg/mL (≈ 3100 mM)
- % Reduction (Ctenocephalides felis; Day 0 (12 h)): 99.44%
- % Reduction (Ctenocephalides felis; Day 1 (24 h)): 99.79%
- % Reduction (Ctenocephalides felis; Day 2 (24 h)): 100.00%
- % Reduction (Ctenocephalides felis; Day 8 (24 h)): 100.00%
- % Reduction (Ctenocephalides felis; Day 15 (24 h)): 96.76%
- % Reduction (Ctenocephalides felis; Day 22 (24 h)): 93.63%

From patent US11464763B2, “Parasiticidal compositions comprising an isoxazoline active agent, methods and uses thereof” (BOEHRINGER INGELHEIM ANIMAL HEALTH USA INC., priority 2011, dated 2022)
